Three substances from patent publication EP0290583B1, “$g(a) OLIGONUCLEOTIDES” (CENTRE NATIONAL DE LA RECHERCHE SCIENTIFIQUE (CNRS), priority 1986, dated 1988) can be followed below.

One experiment relates to β-d^5'[GAGTTTAGA]^3'. Description: Complex formation with the antiparallel beta strand. Format: binding. The settings on record: antiparallel sequence; 10 mM cacodylate de sodium/0,1M NaCl, pH = 7, 10 µM. The text has this:
(§1) Les nouveaux produits de formule générale (I) selon l'invention et les produits de formule générale (I) dans laquelle L représente un atome d'oxygène, R et R' représentent chacun un atome d'hydrogène et B représente un base nucléique naturelle forment des complexes d'hybridation avec les séquences complémentaires d'ARN beaucoup plus stables que ceux qui sont formés avec l'ADN. La stabilité peut être mesurée par la température de demi-transition des complexes (T 1/2) lors d'une élévation de température. Les valeurs de T 1/2 sont déterminées à la concentration de 10⁻⁵M en α -oligonucléotide dans un tampon à pH = 7 contenant du cacodylate de sodium (10⁻²M) et du chlorure de sodium (0,1 M). Les résultats sont rassemblés dans les Tableaux I.
(§2) Dans les hybrides formés par les dérivés des α-oligonucléotides selon l'invention avec les séquences d'acides nucléiques complémentaires les deux brins possèdent généralement la même orientation.

In another experiment the test system is β-d^5' [AGATTTGAG]^3'. Description: Half-dissociation temperature (T 1/2) of the hybridisation complex with a parallel complementary beta strand. Format: binding. To be noted: 10 mM cacodylate de sodium/0,1M NaCl, pH = 7, 10 µM.
Text: as §1, §2

The test system of experiment [1] is β-d^5' (ApCpGpGpApApTpApTpApGpC]^3'. The experiment is described as above. Format: binding. To be noted: 10 mM cacodylate de sodium/0,1M NaCl, pH = 7, 10 µM.
Text: as §1, §2

For experiment [2], the system named is fragment d'ADN simple brin (10 nM) de séquence d(^5'TGAGTGAGTAAAAAAAATGAGTGCCAA^3'). In words: Specific cleavage of single-stranded DNA by a phenanthroline-coupled alpha-oligonucleotide. Format: biochemical. The settings on record: 5µM, sulfate cuivrique (1µM), acide β-mercaptopropionique (1 mM), 0°C, 3 heures. On the procedure: (§3) L'α-D-oligonucléotide décrit à l'exemple XIV (5µM) est dissous dans un tampon à pH 7 contenant 10 mM cacodylate de sodium et 0,1 M NaCl. […] Du sulfate cuivrique (1µM) et de l'acide β-mercaptopropionique (1 mM) sont ajoutés à 0°C et le mélange est incubé à 0°C pendant 3 heures. De la bathocuproine est ajoutée pour arrêter la réaction. Le mélange est disposé sur un gel de polyacrylamide à 18 % et soumis à l'électrophorèse.

Experiment [3] has as its system fragment d'ADN double brin. In words: Specific cleavage of double-stranded DNA by a phenanthroline-coupled alpha-oligonucleotide. Format: biochemical. The settings on record: en présence de 1 mM spermine. On the procedure: as §3
La position des sites de coupure sur le double brin indique que l'α-D-oligothymidylate XIV est orienté parallèlement au brin contenant la séquence A₈.

In the case of Acr(CH₂)₅ α-d^5'[TCTAAACTC]^3', in the experiment with β-d^5'[GAGTTTAGA]^3', the “complexe mis en évidence au-dessus de 0°C” value is “Aucun complexe”. For the same substance, the “température de demi-dissociation (T 1/2)” value in the experiment with β-d^5' [AGATTTGAG]^3' was found to be 27 °C.
In the case of “[Acr(CH₂)₅]α-d(pCpCpTpTpApTpApTpT) [Acr(CH₂)₅-α-d^5' [pCpCpTpTpApTpApTpT]^3']”, the “température de demi-dissociation (T 1/2)” value in experiment [1] was determined as 35 °C.
For the substance (Phe-CH₂)α-[(sp)(Tp)₇T] [XIV], the “coupure de l'ADN simple brin (sites de coupures)” value in experiment [2] is on record as “sites de coupures sont révélés”. In experiment [3], the “coupure de l'ADN double brin” value was “induit des coupures sur les deux brins de la double hélice”.
